In patent US20200239530A1, “COMPOUNDS AND METHODS OF MODULATING PROTEIN DEGRADATION” (Vividion Therapeutics, Inc., priority 2017, published 2020):

Columns and labels:
[1] = target: T1, FLYWCH2 FLYWCH family member 2 (Homo sapiens, UniProt Q96CP2); experiment: Cysteine liganding, probe competition; type: binding
T1 construct: 200 μL of lysate containing 5 mg/ml proteome was treated with 2 μL of 100× compound stock; endogenous in cells
T1 sequence (Q96CP2 1-140): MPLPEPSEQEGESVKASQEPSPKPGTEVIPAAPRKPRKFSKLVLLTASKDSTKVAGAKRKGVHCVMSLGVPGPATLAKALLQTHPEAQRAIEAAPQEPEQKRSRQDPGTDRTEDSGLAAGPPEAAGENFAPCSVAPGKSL
Outline: (§1)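 Read-out is loss of desthiobiotin iodoacetamide labelling at cysteines, measured on streptavidin-enriched tryptic peptides. Compound preincubation ran 1 hr at 25° C in PBS lysate holding 5 mg/ml proteome before the probe was added.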

HIST1H3J Histone H3.1 = target: T2, HIST1H3J Histone H3.1 (Homo sapiens, UniProt P68431); experiment: Cysteine liganding, probe competition; type: binding; settings: for Liganded: HIST1H3J Res# 111, uniprot P68431
T2 construct: Cells were resuspended in cold PBS on ice and sonicated with a probe sonicator to achieve lysis; endogenous in cells
Outline: as §1

Row | Compound | 100 Max ([1]; uniprot Q96CP2) | 100 ave ([1]; uniprot Q96CP2) | 500 Max ([1]; uniprot Q96CP2) | 500 ave ([1]; uniprot Q96CP2) | Liganded (HIST1H3J Histone H3.1) | 100 ave (HIST1H3J Histone H3.1; uniprot P68431) | 500 Max (HIST1H3J Histone H3.1; uniprot P68431) | 500 ave (HIST1H3J Histone H3.1; uniprot P68431) | 100 Max (HIST1H3J Histone H3.1; uniprot P68431, in % (unit assumed)) | Liganded ([1]; FLYWCH2 Res# 64, uniprot Q96CP2)
1 | O=C(CCl)Nc1cc(C(F)(F)F)cc(C(F)(F)F)c1 [KBO3] | 12.97 | 2.25 | 41.66 | 41.635 | YES | 22.28 | 79.39 | 79.39 | 50.87 | –
2 | COc1ccc2c(c1)CCCN2C(=O)CCl [KB02] | – | – | – | – | YES | – | – | – | – | YES
